Consider eight compounds from paper PMC11865982, “Structure–Activity Relationships and Biological Insights into PSMA-617 and Its Derivatives with Modified Lipophilic Linker Regions” (ACS Omega, 2025).

For orientation: IC50 means the concentration that inhibits the measured activity by half. Broadly, the log D is lipophilicity at a set pH, counting ionised and neutral species. Read a high log D as higher lipophilicity.

The conditions of series [1]: linker amino acid building block; source not stated; cited from earlier work.
The target of a further series is T1, recombinant human PSMA (Homo sapiens, UniProt Q04609).
T1 construct: extracellular part of human PSMA (amino acids 44–750); made in house; host or cells: Drosophila Schneider's S2 cells (secreted into conditioned medium)
T1 sequence (Q04609 44-750): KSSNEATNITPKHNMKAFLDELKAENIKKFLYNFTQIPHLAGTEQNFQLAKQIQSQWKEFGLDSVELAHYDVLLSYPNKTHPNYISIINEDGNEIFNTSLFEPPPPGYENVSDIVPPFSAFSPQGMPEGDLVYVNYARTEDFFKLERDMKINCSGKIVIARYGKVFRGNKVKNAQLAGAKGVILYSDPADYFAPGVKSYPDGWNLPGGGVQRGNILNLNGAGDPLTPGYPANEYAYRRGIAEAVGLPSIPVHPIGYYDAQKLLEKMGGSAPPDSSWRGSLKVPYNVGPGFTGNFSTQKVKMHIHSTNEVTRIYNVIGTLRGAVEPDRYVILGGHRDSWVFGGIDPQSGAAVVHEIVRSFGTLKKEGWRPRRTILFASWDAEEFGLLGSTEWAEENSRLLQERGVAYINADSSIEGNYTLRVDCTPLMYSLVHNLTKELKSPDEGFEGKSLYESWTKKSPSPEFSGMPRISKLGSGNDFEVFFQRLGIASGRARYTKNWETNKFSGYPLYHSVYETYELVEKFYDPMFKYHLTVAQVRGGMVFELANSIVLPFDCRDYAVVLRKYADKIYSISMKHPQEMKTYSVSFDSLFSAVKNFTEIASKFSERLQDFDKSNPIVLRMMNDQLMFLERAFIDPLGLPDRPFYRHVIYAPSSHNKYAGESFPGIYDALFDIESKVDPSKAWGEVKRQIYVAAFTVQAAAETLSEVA
In words: HPLC-based PSMA enzyme inhibition assay with fluorescein-γ-Glu-Glu substrate. Conditions: 20 pM recombinant human PSMA, 100 nM substrate, 37 °C; average ± SD (n = 3). It is filed as biochemical. On the procedure: The potency of the studied inhibitors against recombinant human PSMA was determined in vitro using an HPLC-based assay with fluorescein−γ-Glu–Glu as the substrate.[11]
Expression and purification of the extracellular part of human PSMA (amino acids 44–750) were performed essentially as described previously.[27] Briefly, the N-terminally tagged PSMA fusion was overexpressed in Schneider’s S2 cells and the conditioned medium concentrated and dialyzed by tangential flow filtration (Millipore, Mosheim, France).
The inhibitory potency was determined using a fluorescence-based assay described previously.[11] Briefly, 20 pM recombinant human PSMA was preincubated with a 3-fold dilution series of inhibitors in 50 mM Tris.HCl, 150 mM NaCl, and 0.001% C12 E8 for 10 min at 37 °C. The reaction was initiated by the addition of 100 nM substrate in a total volume 50 μL. Following 15 min incubation at 37 °C, the reaction was stopped by the addition of 50 μL of 0.1% TFA in 5% ACN. Reaction mixtures were analyzed by RP-HPLC (Shimadzu, HPLC Prominence system) equipped with a Kinetex 2.6 μm XB-C18 100 Å column and a fluorescence detector (λEX/λEM = 492/516). HPLC separation was performed using a linear solvent gradient over 11 min from 20 to 50% of eluent B (0.1% (v/v) TFA in ACN) at a flow rate of 0.6 mL/min. The mobile phase A was 0.1% (v/v) TFA in water. The noninhibited reaction was assigned 100% and the reaction without enzyme present was defined as 0%. Data were fitted using a nonlinear regression algorithm (GraphPad Prism Software, version 8) to calculate IC50 values from the inhibition curves. Three independent assays were performed for each compound.

Series [2] addresses T2, PSMA-positive LNCaP cell line (Homo sapiens, UniProt Q04609).
T2 construct: native LNCaP and LNCaP-derived C4-2 cell lines; host or cells: LNCaP
In words: Competitive cell-binding affinity assay against [177Lu]Lu-PSMA-617, LNCaP. The settings on record: competition with 0.75 nM [177Lu]Lu-PSMA-617, 45 min RT; average ± SD (n = 3). The method, then: (§1) To validate the IC50 values determined by the in vitro enzymatic assay, the PSMA-expressing cell line LNCaP, its daughter cell line C4-2, and the PSMA-overexpressing cell line PC-3 PIP were utilized to compare the cell-binding affinities of P17 and P18 to PSMA-617. The IC50 values of P17 and P18 were assessed by competitive binding against [^177Lu]Lu-PSMA-617. […] For the transfected cell line PC-3 PIP, the IC50 values for all three compounds were determined to be approximately 10-fold higher.
(§2) Cell culture media and supplements were purchased from PAN Biotech if not stated otherwise. In vitro assays were performed using the sublines of the androgen-independent PC3 human PCa cell line, PSMA-positive (PSMA+) PC3-PIP and PSMA-negative (PSMA−) PC3-flu cells, purchased from Johns Hopkins University (Baltimore, […], USA). Both cell lines were housed in a humidified atmosphere of 5% CO2 at 37 °C and cultured in RPMI-1640 medium supplemented with 10% fetal calf serum (FCS), 1% L-glutamine (L-Gln), and puromycin (2 μg/mL). In addition, cell-binding affinity assays were also performed on PSMA + LNCaP (ATCC CRL-1740) and C4-2 (ATCC CRL-3314) cell lines. LNCaP was derived from a human lymph node metastatic lesion of PCa while C4-2 was isolated from an LNCaP-based tumor xenograft of an androgen-depleted mouse. Both cell lines were cultured as described above but in the absence of puromycin. Routine cell culture was performed twice a week at RT using phosphate-buffered saline (PBS, pH 7.4) for washing and 0.05% trypsin for cell detachment.
(§3) The binding affinities of PSMA-617, P17, and P18 were determined using a competitive assay with [^177Lu]Lu-PSMA-617. All three compounds were incubated at 12 different concentrations (0, 0.5, 1, 2.5, 5, 10, 25, 50, 100, 500, 1,000, and 5000 nM) with 0.75 nM [^177Lu]Lu-PSMA-617 on either PSMA + cell lines PC3-PIP, LNCaP, or C4-2 or the PSMA– cell line PC3-flu plated at a concentration of 10^6 cells/well. After 45 min incubation at RT, the radioligand was removed and cells washed twice with 100 μL and once with 200 μL ice-cold PBS. […]

Series [3] concerns the target T3, PSMA-positive C4-2 cell line (Homo sapiens, UniProt Q04609).
T3 construct: native LNCaP and LNCaP-derived C4-2 cell lines; host or cells: C4-2
The series can be described thus: Competitive cell-binding affinity assay against [177Lu]Lu-PSMA-617, C4-2. Conditions: competition with 0.75 nM [177Lu]Lu-PSMA-617, 45 min RT; average ± SD (n = 3). On the procedure: as §1, §2, §3

The target of series [4] is T4, PSMA-overexpressing PC-3 PIP cell line (Homo sapiens, UniProt Q04609).
T4 construct: host or cells: PC3-PIP (subline of the human PC3 prostate cancer line)
T4 sequence (Q04609 whole entry): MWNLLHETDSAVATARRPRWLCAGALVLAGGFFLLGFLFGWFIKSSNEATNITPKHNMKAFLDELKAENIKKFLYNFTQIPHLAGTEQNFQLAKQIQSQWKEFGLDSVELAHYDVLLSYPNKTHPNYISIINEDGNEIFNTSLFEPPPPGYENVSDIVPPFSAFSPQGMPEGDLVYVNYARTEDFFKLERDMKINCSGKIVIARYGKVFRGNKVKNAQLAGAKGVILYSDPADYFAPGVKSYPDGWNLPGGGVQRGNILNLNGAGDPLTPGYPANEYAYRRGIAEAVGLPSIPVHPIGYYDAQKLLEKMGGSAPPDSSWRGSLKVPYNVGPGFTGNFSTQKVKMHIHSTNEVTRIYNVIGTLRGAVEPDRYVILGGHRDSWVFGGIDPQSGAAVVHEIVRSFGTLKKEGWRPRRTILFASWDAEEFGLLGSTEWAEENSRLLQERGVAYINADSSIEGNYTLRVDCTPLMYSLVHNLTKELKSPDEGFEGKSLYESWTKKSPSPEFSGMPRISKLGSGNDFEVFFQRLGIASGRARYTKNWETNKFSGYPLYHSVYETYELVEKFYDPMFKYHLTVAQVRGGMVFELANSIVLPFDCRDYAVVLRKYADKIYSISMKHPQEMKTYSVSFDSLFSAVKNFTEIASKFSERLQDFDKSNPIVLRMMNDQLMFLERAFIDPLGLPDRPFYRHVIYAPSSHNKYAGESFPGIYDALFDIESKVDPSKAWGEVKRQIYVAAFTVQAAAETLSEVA
The series can be described thus: Competitive cell-binding affinity assay against [177Lu]Lu-PSMA-617, PC3-PIP. Conditions: competition with 0.75 nM [177Lu]Lu-PSMA-617, 45 min RT; average ± SD (n = 3). The method, then: as §1, §2, §3

A short description of series [5]: Stability in DMSO solution by 1H NMR. The format is physicochemical. Conditions: several days. The method, then:
Characterization of the compounds was conducted extensively by one-dimensional (1D) ^1H, ^13C, and ^15N NMR (Figures S10–S15) and two-dimensional (2D) spectra, viz. COSY, HSQC, and HMBC (Figures S16–S21). Previous assignments of analogous compounds[5] were also used to provide unequivocal assignment of the ^1H, ^13C, and ^15N signals except for the DOTA macrocyclic ring assignments which could not be effected with certitude due to dynamic effects causing severe line broadening and thereby precluding correlations in the 2D spectra pertinent to the DOTA ring. The dynamic effects arising from the slow motional averaging of the DOTA ring on the NMR time scale leading to severe broadening of the signals of the DOTA ring were alleviated for the ^13C signals by the acquisition of spectra at lower field. Indeed, not all of the signals of the DOTA ring could be observed in the case of ^15N, unequivocally assigned in the case of ^13C, or uniquely discerned in the case of ^1H. However, all other signals though were able to be fully assigned and the spectra were otherwise fully consistent with the proposed structures and for both P17 and P18 the assigned structures were confirmed in terms of proton count, carbon count, and carbon multiplicities. […]

The next series concerns PC3-PIP cells. In words: Cellular internalization assay. The format is cell-based, human. Conditions: 30 nM radioligand, 45 min 37 °C, average ± SD (n = 3). The method, then:
To further characterize P17 and P18, internalization assays were conducted to determine whether the structural modifications of the linker have an impact on the uptake of the inhibitor–enzyme complex into the cell, which is critical for efficient retention in vivo.
as §2
Cells (10^5 cells/well) were seeded in poly-L-lysine (PLL)-coated plates 24 h before the experiment. […] Another set of cells was treated analogically while the PSMA-inhibitor 2-(phosphonomethyl)pentane-1,5-dioic acid (2-PMPA; 100 mM, […]) was added in order to subtract the nonspecific binding. The respective radioligand was removed and cells were washed three times with 1 mL ice-cold PBS and the surface-bound radioactivity detached by incubating the cells twice with 500 μL glycine buffer (50 mM, pH 2.8) for 5 min. After washing the cells once with 1 mL ice-cold PBS, the internalized fraction was determined by subsequent cells lysis with 500 μL NaOH (0.3 M, pH 14). […] Three independent assays were performed.

A short description of series [6]: n-Octanol/PBS distribution coefficient. The format is physicochemical. Conditions: n-octanol/PBS pH 7.4.

Each structure is given as a SMILES string. A value given as a limit tells only on which side of the number the result lay.

T3 sequence (Q04609 whole entry): as above
T2 sequence (Q04609 whole entry): as above

For the compound `N[C@@H](Cc1ccc2ccccc2c1)C(=O)O` [2-naphthyl-L-Ala], the “log Kow” value in series [1] is reported as over 3.
As to `N[C@@H](CC=Cc1ccccc1)C(=O)O` [3-styryl-L-Ala], in series [1], the “log Kow” value is recorded as under 3.
As for `O=C(O)CC[C@H](NC(=O)N[C@@H](CCCCNC(=O)[C@H](C/C=C/c1ccccc1)NC(=O)[C@H]1CC[C@H](CNC(=O)CN2CCN(CC(=O)O)CCN(CC(=O)O)CCN(CC(=O)O)CC2)CC1)C(=O)O)C(=O)O` [P17], the IC50 at recombinant human PSMA is 0.3 ± 0.04 nM; in series [2], 12.9 ± 0.4 nM; in series [3] it was 15.5 ± 2.5 nM; in series [4] it was 150 ± 30 nM. Also, the “stability in DMSO solution” value in series [5] is “no sign of decomposition after several days”.
As for `O=C(O)CC[C@H](NC(=O)N[C@@H](CCCCNC(=O)[C@H](C/C=C/c1ccccc1)NC(=O)c1ccc(CNC(=O)CN2CCN(CC(=O)O)CCN(CC(=O)O)CCN(CC(=O)O)CC2)cc1)C(=O)O)C(=O)O` [P18], the IC50 came out at 0.45 ± 0.09 nM on recombinant human PSMA, 11.2 ± 4.8 nM in series [2], 9.5 ± 3 nM in series [3] and 111 ± 9 nM in series [4]. Also, the “stability in DMSO solution” value in series [5] is reported as “no sign of decomposition after several days”.
On to `O=C(O)CC[C@H](NC(=O)N[C@@H](CCCCNC(=O)[C@H](Cc1ccc2ccccc2c1)NC(=O)[C@H]1CC[C@H](CNC(=O)CN2CCN(CC(=O)O)CCN(CC(=O)O)CCN(CC(=O)O)CC2)CC1)C(=O)O)C(=O)O` [PSMA-617], for which the IC50 at recombinant human PSMA was 0.05 ± 0.03 nM; in series [2], 6.9 ± 2.2 nM; in series [3], 4.9 ± 0.9 nM; in series [4], 71 ± 8 nM.
On to `O=C([O-])CN1CCN(CC(=O)[O-])CCN(CC(=O)NC[C@H]2CC[C@H](C(=O)N[C@@H](C/C=C/c3ccccc3)C(=O)NCCCC[C@H](NC(=O)N[C@@H](CCC(=O)O)C(=O)O)C(=O)O)CC2)CCN(CC(=O)[O-])CC1.[177Lu+3]` [[^177Lu]Lu-P17], for which, in the series on PC3-PIP cells, the internalized amounted to 8.5 ± 2.4 % AA and the total binding was 20.1 ± 9.8 % AA. Further, the “log D” value in series [6] was −3.36 ± 0.05.
In the same order, the values of `O=C([O-])CN1CCN(CC(=O)[O-])CCN(CC(=O)NCc2ccc(C(=O)N[C@@H](C/C=C/c3ccccc3)C(=O)NCCCC[C@H](NC(=O)N[C@@H](CCC(=O)O)C(=O)O)C(=O)O)cc2)CCN(CC(=O)[O-])CC1.[177Lu+3]` [[^177Lu]Lu-P18] are 8.7 ± 2.9 % AA, 33.7 ± 12.8 % AA and −3.35 ± 0.04.
In the series on PC3-PIP cells, `O=C([O-])CN1CCN(CC(=O)[O-])CCN(CC(=O)NC[C@H]2CC[C@H](C(=O)N[C@@H](Cc3ccc4ccccc4c3)C(=O)NCCCC[C@H](NC(=O)N[C@@H](CCC(=O)O)C(=O)O)C(=O)O)CC2)CCN(CC(=O)[O-])CC1.[177Lu+3]` [[^177Lu]Lu-PSMA-617, reference compound] returned an internalized of 8.2 ± 2.4 % AA and a total binding of 26.8 ± 14.2 % AA. The “log D” value in series [6] is −3.27 ± 0.05.
